# US8017809B2, “Bisboron compound” (Japan Science and Technology Agency, priority 2005, dated 2011)
# Read-outs that look alike come from different tables or passages of the source.
# System: capacitative calcium entry (CCE) in IP3 receptor-deficient strain of cell line DT40
# 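Also: intracellular Ca2+ read as 340/380 nm excitation ratio at 510 nm emission, stores emptied by thapsigargin without external Ca2+, then 2 mM CaCl2 added, inhibition of the ensuing Ca2+ rise.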
# Procedure: (Assay of Capacitative Calcium Entry Inhibition)
# Its 510 nm fluorescence obtained at 340 nm and 380 nm is measured and the fluorescence ratio F340/380 is measured to determine the intracellular calcium ion concentration. Next, thapsigargin (an endoplasmic reticulum calcium ion pump inhibitor) is allowed to act without calcium ion in an extracellular fluid to deplete an intracellular calcium store. Calcium chloride at a final concentration of 2 mM is added to the extracellular fluid. The IC50 value is calculated by estimating the effect of each compound on the degree of increase in the intracellular calcium concentration at the time of the addition.
substance,measurement,setting,value
"Bis(4,4′-(phenyl-ornithineboryl)phenyl) ether [Example 117]",inhibition,1 µM,80%
same,inhibition,3 µM,100%
